Assay results from US20230063230A1, “NURR1 RECEPTOR MODULATORS” (priority 2019, published 2023).

Experiments:
[1] = target: T1, Nurr1 LBD (Homo sapiens, UniProt P43354); test: Surface plasmon resonance (SPR) assay; assay type: binding
Method: Surface Plasmon Resonance Assays. Data were collected using Biacore T200 (GE) instrument at a flow rate of 30 μL/min and at a temperature of 25° C. The running buffer was 25 mM HEPES, pH 7.4, 150 mM NaCl, 0.05% Surfactant Tween 20, and 2% DMSO. The biotinylated Nurr1 LBD was immobilized on a sensor chip SA (GE Healthcare Life Sciences; product number 29104992) or at 6000-7000 RU, or a CAP chip (GE Healthcare Life Sciences; product number 28920234) at 1500-2000 RU. Data collection was performed with kinetic titration mode. Analytes dilutions were carried out starting from DMSO stocks (10 mM). Analytes dissolved in DMSO were added to 1.02x running buffer without DMSO to yield a final DMSO concentration of 2%. When using CAP chip, surface regeneration was performed between each titration curve using 6 M guanidine.HCl+0.25 M NaOH regeneration solution followed by re-immobilization of Nurr1 (as described in the manufacturer's regeneration protocol). Data processing included double referencing (i.e., reference flow cell and buffer subtracted using a buffer injection of appropriate contact time for the given injection). Solvent correction was performed using a standard curve in a range of 1.8-2.3% DMSO.

[2] = target: T2, Nurr1 ligand binding domain (Homo sapiens, UniProt P43354); test: Crystal structures of ligands covalently bound to Nurr1; settings: crystal structure, Cys566
T2 sequence (P43354 360-595 limits assumed): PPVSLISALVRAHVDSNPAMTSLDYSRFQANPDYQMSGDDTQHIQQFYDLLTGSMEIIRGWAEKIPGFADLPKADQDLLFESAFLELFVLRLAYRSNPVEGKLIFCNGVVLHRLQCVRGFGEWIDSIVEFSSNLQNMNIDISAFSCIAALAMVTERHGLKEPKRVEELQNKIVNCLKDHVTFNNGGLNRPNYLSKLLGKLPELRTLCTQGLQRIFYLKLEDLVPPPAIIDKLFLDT
From the text: First, we used the Nurr1 ligand binding domain (LBD) and a disulfide-trapping screen to identify 50 compounds that conjugate directly to Nurr1, undergoing a disulfide exchange reaction with Cys566.

[3] = target: T1, Nurr1 LBD; test: Differential scanning fluorimetry (DSF); assay type: binding
From the text: (§1) Dopamine is broken down inside the neurons that produce it, generating oxygen free-radicals and other potentially damaging molecules (53). Among the reactive metabolites is 5,6-dihydroxyindole (DHI), a compound that undergoes spontaneous oxidation to a reactive quinone, which oligomerizes to form a polymer (neuromelanin) of unknown function. This polymer accounts for the dark appearance of nigrostriatal neurons in the normal adult CNS (54,55). Dopamine is also a central player in stress and addiction (3). It is clear that dopamine levels need to be tightly regulated in the CNS. Nurr1 controls all the genes required for dopamine synthesis, but its regulation is poorly understood as the receptor lacks both the canonical NR ligand binding pocket and the classic NR co-regulator binding surface (33). We postulated that Nurr1 might be regulated by dopamine itself, or one of its metabolites, and investigated this possibility using a combination of biophysical and structural techniques. […] Identifying stable analogs of DHI will enable more detailed studies of this intriguing biology.

[4] = target: T3, Nurr1 LBD fused to Gal4 DBD (Homo sapiens, UniProt P43354); test: Luciferase reporter assay; assay type: cell-based
T3 construct: expressed in transfected cells; host or cells: SK-N-BE(2)C cells (ATCC CRL-2268)
T3 sequence (P43354 328-598): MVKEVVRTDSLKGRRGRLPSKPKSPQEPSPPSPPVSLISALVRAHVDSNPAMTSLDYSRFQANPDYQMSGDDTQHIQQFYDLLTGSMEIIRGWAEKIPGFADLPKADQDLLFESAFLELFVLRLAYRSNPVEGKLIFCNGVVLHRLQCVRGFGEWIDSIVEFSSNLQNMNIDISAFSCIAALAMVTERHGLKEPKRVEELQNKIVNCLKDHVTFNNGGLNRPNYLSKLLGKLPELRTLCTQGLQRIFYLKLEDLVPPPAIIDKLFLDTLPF
Method: In particular, direct binding to the Nurr1 LBD in vitro was measured using microscale thermophoresis (MST) and surface plasmon resonance (SPR), and efficacy in cells was measured using a lucifierase reporter assay (Nurr1 LBD fused to Gal4 DBD, measuring effect on luciferase activity) and target gene transcription assays (full length Nurr1, measuring mRNA levels of specific Nurr1 target genes). These assays pointed to a subset of compounds that bind directly to the Nurr1 LBD (by MST and/or SPR) and produce >1.5-fold changes in Nurr1 activity in cells (by Luc and/or TGT assays) (Table 1, Table 2).
Luciferase Reporter Assays. pBIND—Nurr1 is generated by cloning Nurr1 LBD (a.a. 328-598 of human Nurr1) into pBIND vector (Promega E2440). The pBIND vector also contains a Renilla luciferase gene under the control of the SV40 Promoter that can be used to normalize the transfection efficiency. The firefly luciferase reporter pG5-Luc vector (Promega E2440) contains 5 repeats of GAL4 UAS (upstream activation sequence) upstream of luciferase gene. SK—N— BE(2)C cells (ATCC CRL-2268) were transiently transfected with pBIND—Nurr1 and pG5-Luc by FuGENE HD (Promega, E2311) in 96-well-plate with the seeding density of 200,000 cells/mL. […] After 18 hours, the luminescence of Firefly and Renilla luciferase were measured by Dual Luciferase Reporter Assay System (Promega E1960).

[5] = test system: Nurr1 target genes; test: Transcription of Nurr1 target genes in live zebrafish; assay type: in vivo
From the text: as §1

[6] = test system: Nurr1 target genes in MN9D cells; test: MN9D target gene transcription assay; assay type: cell-based; settings: gene expression normalized to Hprt
Method: MN9D Assays. MN9Dtet-on cells were treated with 10 μM of each compound or DMSO (vehicle control) for 6 to 24 hrs. Total RNAs were isolated using Quick-RNA miniprep Plus (ZYMO Research, cat#: R^1058), and were subsequently reverse transcribed using High Capacity cDNA Reverse Transcription kit (Applied Biosystems, cat#: 4368814). SYBR Green quantitative real-time PCR analysis was performed using CFX96 Real Time system (BioRad). The following primer pairs were used for qPCR: Nurr1; 5′-[…]-3′ (SEQ ID NO:5) and 5′-[…]-3′ (SEQ ID NO:6), Pitx3; 5′-GCAACTGGCCGCCCAAGG-3′ (SEQ ID NO:7) and 5′-AGGCCCCACGTTGACCGA-3′ (SEQ ID NO:8), VMAT2; 5′-[…]-3′ (SEQ ID NO:9) and 5′-[…]-3′ (SEQ ID NO:10), TH; 5′-[…]-3′ (SEQ ID NO:11) and 5′-[…]-3′ (SEQ ID NO:12), HPRT; 5′-TGGGAGGCCATCACATTGT-3′ (SEQ ID NO:13) and 5′-[…]-3′ (SEQ ID NO:14). The levels of gene expression were normalized to the level of housekeeping gene (HPRT) expression.

[7] = target: T2, Nurr1 ligand binding domain; test: Microscale thermophoresis (MST) binding assay; settings: measured by microscale thermophoresis
Method: Microscale thermophoresis (MST) assays. Data were collected using the Nanotemper Monolith NT.115 at a temperature of 25° C. The MST buffer used in each experiment was 25 mM HEPES (Sigma Aldrich), pH 7.4, 150 mM NaCl (Alfa Aesar), and 0.02% Pluronic (Sigma Aldrich). All samples were prepared using Protein LoBind tubes or deepwell plates (Eppendorf). The His-tagged Nurr1 was labeled with RED-tris-NTA dye (NT-647) according to the kit's protocol (Nanotemper). Dilutions of each ligand were carried out starting from DMSO stocks of 10 mM in DMSO. The analyte solutions in DMSO were added to aliquots of MST buffer to yield a DMSO concentration of 4%.
Two types of experiments were performed: endpoint and binding affinity assays. For the endpoint assays, equal amounts of the ligand solution and labeled Nurr1 were mixed to yield the final concentrations: 50 nM Nurr1, 25 nM RED-tris-NTA dye, 2% DMSO, and either 25 μM or 100 μM of the desired ligand in the MST buffer. […]
The Monolith NT.115 settings for all samples were 40% excitation power and 40% MST power. The initial fluorescence was recorded for 3 seconds and the thermophoresis fluorescence response was recorded for 20 seconds. […] Screening Analysis software (Nanotemper) was used to normalize the fluorescent response signals to the sample's initial fluorescence. […]

[8] = target: T4, Nurr1 (Homo sapiens, UniProt P43354); test: Binding SPR
Target sequence in this assay (P43354 360-595 limits assumed): as the sequence (P43354 360-595 limits assumed) above

[9] = target: T4, Nurr1; test: Binding MST
Target sequence in this assay (P43354 360-595 limits assumed): as above

[10] = test system: Vmat2 in MN9D; test: cells; assay type: cell-based; settings: cpds tested at 10 μM, analogs of compound 87, read-out: qPCR MN9D Vmat2
[11] = test system: TH in SHSY5Y; test: qPCR SHSY5Y TH; assay type: cell-based; settings: Homo sapiens, SH-SY5Y, cpds tested at 10 μM
[12] = test system: Nurr1 in MN9D; test: qPCR MN9D Nurr1; assay type: cell-based; settings: cpds tested at 10 μM, analogs of compound 87
[13] = target: T4, Nurr1; test: Luciferase cellular assay; assay type: cell-based; parameters: expressed in transfected cells; host or cells: SK-N-BE(2)C cells (ATCC CRL-2268); settings: cpds tested at 10 μM; analogs of compound 87
Target sequence in this assay (P43354 328-598): as the sequence (P43354 328-598) above

[14] = test system: Pitx3 in MN9D; test: qPCR MN9D Pitx3; assay type: cell-based; settings: cpds tested at 10 μM, analogs of compound 87

T1 sequence (P43354 360-595 limits assumed): as the sequence (P43354 360-595 limits assumed) above

Compound | Binding SPR ([8]; analogs of compound 87) | Binding MST ([9]; analogs of compound 87) | fold induction at 10 µM [10] | fold induction at 10 µM [11] | Luciferase [13] | other results
Oc1cc2cc[nH]c2cc1O [DHI, 5,6-dihydroxyindole] | – | – | – | – | – | Off-rate [1]: very slow off-rate; Kd ([1]; read-out: Kd for binding to Nurr1): 5 µM; Covalent binding to Nurr1 [2]: reversible covalent adduct with Cys566; Stabilization of the Nurr1 LBD, melting temperature [3]: increasing the melting temperature by one degree; Nurr1 activity in the reporter assay [4]: stimulating Nurr1 activity; Expression of VMAT ([5]; acute exposure (6 h, data not shown)): drives the expression; Transcription of Nurr1 target genes in live zebrafish ([5]; in vivo): driving transcription of Nurr1 target genes; Expression of TH ([5]; longer exposure (24 h)): drives the expression
O=C(COc1ccc(Cl)c(Cl)c1)NCCS [SP 85, 2-(3,4-dichlorophenoxy)-N-(2-mercaptoethyl)acetamide] | – | – | – | – | – | Transcription of Nurr1 target genes in MN9D cells [6]: stimulate the transcription of Nurr1 target genes; Binding to the Nurr1 ligand binding domain, affinity [7]: high nanomolar affinity; Binding SPR ([8]; analogs of compound 85): +; Binding MST ([9]; analogs of compound 85): +++
CC(C)(NC(=O)c1cc(Cl)cc(Cl)c1)c1cn(CCS)nn1 [SP 87, 3,5-dichloro-N-(2-(1-(2-mercaptoethyl)-1H-1,2,3-triazol-4-yl)propan-2-yl)benzamide] | + | +++ | > 4 | > 1.5 | – | Transcription of Nurr1 target genes in MN9D cells [6]: stimulate the transcription of Nurr1 target genes; Binding to the Nurr1 ligand binding domain, affinity [7]: high nanomolar affinity
CC(C)(NC(=O)c1cc(Cl)cc(Cl)c1)c1cnn(CCS)c1 [SP 153, 3,5-dichloro-N-(2-(1-(2-mercaptoethyl)-1H-pyrazol-4-yl)propan-2-yl)benzamide] | +++ | +++ | > 1.5 | > 4 | – | fold induction at 10 µM [12]: > 4
CC(C)(NC(=O)c1cc(Br)cc(Br)c1)c1cn(CCS)nn1 [SP 156, 3,5-dibromo-N-(2-(1-(2-mercaptoethyl)-1H-1,2,3-triazol-4-yl)propan-2-yl)benzamide] | ++ | ++ | – | > 4 | +++ (+++ =>4−fold) | –
CC(C)(NC(=O)c1ccc(Cl)c(Cl)c1)c1cn(CCS)nn1 [SP 157, 3,4-dichloro-N-(2-(1-(2-mercaptoethyl)-1H-1,2,3-triazol-4-yl)propan-2-yl)benzamide] | + | +++ | > 4 | – | +++ (+++ =>4−fold) | –
CC(C)C(=O)SCCn1cc(C(C)(C)NC(=O)c2cc(Cl)cc(Cl)c2)nn1 [SP 163, S-2-(4-(2-(3,5-dichlorobenzamido)propan-2-yl)-1H-1,2,3-triazol-1-yl)ethyl 2-methylpropanethioate] | – | – | > 4 | > 1.5 | – | –
CC(=O)SCCn1cc(C(C)(C)NC(=O)c2ccc(Cl)c(Cl)c2)nn1 [SP 171, S-2-(4-(2-(3,4-dichlorobenzamido)propan-2-yl)-1H-1,2,3-triazol-1-yl)ethyl ethanethioate] | – | – | – | – | – | fold induction at 10 µM [14]: > 4
CC(=O)SCCn1cc(C(C)(C)NC(=O)c2cc(Br)cc(Br)c2)nn1 [SP 173, S-2-(4-(2-(3,5-dibromobenzamido)propan-2-yl)-1H-1,2,3-triazol-1-yl)ethyl ethanethioate] | – | – | – | > 1.5 | +++ (+++ =>4−fold) | –
CC(=O)SCCn1cc(C(C)(C)NC(=O)c2cc(Cl)cc(N3CCN(C)CC3)c2)nn1 [SP 186, S-2-(4-(2-(3-chloro-5-(4-methylpiperazin-1-yl)benzamido)propan-2-yl)-1H-1,2,3-triazol-1-yl)ethyl ethanethioate] | – | – | > 1.5 | – | ++ (++ => 1.5-fold) | –
CC(=O)SCCn1cc(C(C)(C)NC(=O)c2ccc3ocnc3c2)nn1 [SP 195, S-2-(4-(2-(benzo[d]oxazole-5-carboxamido)propan-2-yl)-1H-1,2,3-triazol-1-yl)ethyl ethanethioate] | – | – | – | – | – | fold induction at 10 µM [14]: > 1.5; fold induction at 10 µM [12]: > 1.5
NCCc1ccc(O)c(O)c1 [dopamine] | – | – | – | – | – | Stabilization of the Nurr1 LBD, melting temperature [3]: not
